This note sets out measurements from patent US9221756B2, “Pyrrole derivatives” (priority 2011, dated 2015).

Each structure is given as a SMILES string.

Chain of pneumolysin (Q04IN8 whole entry): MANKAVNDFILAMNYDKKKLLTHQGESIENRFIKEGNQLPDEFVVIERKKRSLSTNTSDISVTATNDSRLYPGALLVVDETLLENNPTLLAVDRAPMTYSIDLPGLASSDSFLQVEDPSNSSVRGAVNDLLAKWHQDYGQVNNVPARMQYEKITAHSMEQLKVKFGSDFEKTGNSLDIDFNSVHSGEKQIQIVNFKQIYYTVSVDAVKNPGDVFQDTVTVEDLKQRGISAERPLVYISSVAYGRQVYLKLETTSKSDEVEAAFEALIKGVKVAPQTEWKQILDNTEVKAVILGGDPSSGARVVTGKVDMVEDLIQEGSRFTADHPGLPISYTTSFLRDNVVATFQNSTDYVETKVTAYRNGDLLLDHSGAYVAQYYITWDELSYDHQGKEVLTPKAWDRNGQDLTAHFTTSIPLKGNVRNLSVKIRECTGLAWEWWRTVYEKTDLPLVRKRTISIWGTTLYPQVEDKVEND

One experiment concerns the target pneumolysin (Streptococcus pneumoniae serotype 2, UniProt Q04IN8). The experiment can be described thus: Inhibition of the haemolytic activity of pneumolysin (sheep erythrocytes). In kind it is cell-based. Particulars: IC50, inhibition of pneumolysin-induced haemolysis of sheep erythrocytes; class symbols of Table 1.
On to `CCOC(=O)c1c(OCc2ccccc2)c(OCc2ccccc2)c(-c2cccnc2)n1-c1ccc(OC)cc1` [UL1-085, ethyl 3,4-bis(benzyloxy)-1-(4-methoxyphenyl)-5-(pyridin-3-yl)-1H-pyrrole-2-carboxylate], for which the 50% inhibitory concentration (IC50) is less than 10 µM.
On the same count and under the same terms, next, `CCOC(=O)c1c(O)c(O)c(-c2nc(CC)cs2)n1-c1ccc(OC)cc1` [UL1-086, ethyl 5-(4-ethylthiazol-2-yl)-3,4-dihydroxy-1-(4-methoxyphenyl)-1H-pyrrole-2-carboxylate]: less than 10 µM; `CCOC(=O)c1c(OCc2ccccc2)c(OCc2ccccc2)c(-c2nnc(C)o2)n1-c1ccc(OC)cc1` [UL1-087, ethyl 3,4-bis(benzyloxy)-1-(4-methoxyphenyl)-5-(5-methyl-1,3,4-oxadiazol-2-yl)-1H-pyrrole-2-carboxylate]: less than 10 µM.
Turning to `CCOC(=O)c1c(OCc2ccccc2)c(OCc2ccccc2)c(-c2nnc(CC)o2)n1-c1ccc(OC)cc1` [UL1-088, ethyl 3,4-bis(benzyloxy)-5-(5-ethyl-1,3,4-oxadiazol-2-yl)-1-(4-methoxyphenyl)-1H-pyrrole-2-carboxylate], the IC50 was 10 to 20 µM.
The same measure, in the same setting: as for `CCOC(=O)c1c(O)c(O)c(-c2nn[nH]n2)n1-c1ccc(OC)cc1` [UL1-089, ethyl 3,4-dihydroxy-1-(4-methoxyphenyl)-5-(2H-tetrazol-5-yl)-1H-pyrrole-2-carboxylate], the figure is less than 10 µM; as for `CCOC(=O)c1c(OCc2ccccc2)c(OCc2ccccc2)c(-c2nn[nH]n2)n1-c1ccc(OC)cc1` [UL1-090, ethyl 3,4-bis(benzyloxy)-1-(4-methoxyphenyl)-5-(2H-tetrazol-5-yl)-1H-pyrrole-2-carboxylate], less than 10 µM; as for `COc1ccc(-n2c(C(C)=O)c(O)c(O)c2C(=O)N(C)C)cc1` [UL1-091, 5-acetyl-3,4-dihydroxy-1-(4-methoxyphenyl)-N,N-dimethyl-1H-pyrrole-2-carboxamide], less than 10 µM.
Compound `CCOC(=O)c1c(O)c(O)c(C(=O)N(C)C)n1-c1ccc(OCCOC)cc1` [UL1-093, ethyl 5-(dimethylcarbamoyl)-3,4-dihydroxy-1-(4-(2-methoxyethoxy)phenyl)-1H-pyrrole-2-carboxylate] had an IC50 of less than 10 µM.
With `CCOC(=O)c1c(O)c(O)c(C(=O)N(C)C)n1-c1ccc(OCCOCCOCCOC)cc1` [UL1-095, ethyl 5-(dimethylcarbamoyl)-3,4-dihydroxy-1-(4-(2-(2-(2-methoxyethoxy)ethoxy)ethoxy)phenyl)-1H-pyrrole-2-carboxylate], the 50% inhibitory concentration (IC50) is less than 10 µM.
Still for that read-out and setting: as for `CCOC(=O)c1c(O)c(O)c(C(=O)N(C)C)n1-c1ccc(OCCOCCOCCOCCOC)cc1` [UL1-096, ethyl 1-(4-(2,5,8,11-tetraoxatridecan-13-yloxy)phenyl)-5-(dimethylcarbamoyl)-3,4-dihydroxy-1H-pyrrole-2-carboxylate], the figure is less than 10 µM; as for `CCOC(=O)c1c(O)c(O)c(C(=O)NC)n1-c1ccc(OC)cc1` [UL1-099, ethyl 3,4-dihydroxy-1-(4-methoxyphenyl)-5-(methylcarbamoyl)-1H-pyrrole-2-carboxylate], less than 10 µM; as for `CCOC(=O)c1c(O)c(O)c(C(=O)N(C)C)n1-c1ccc(O)cc1` [UL1-100, ethyl 5-(dimethylcarbamoyl)-3,4-dihydroxy-1-(4-hydroxyphenyl)-1H-pyrrole-2-carboxylate], less than 10 µM.
On the same count and under the same terms, next, `CCOC(=O)c1c(O)c(O)c(C(=O)N(C)C)n1-c1ccc(OP(=O)(O)O)cc1` [UL1-101, ethyl 5-(dimethylcarbamoyl)-3,4-dihydroxy-1-(4-(phosphonooxy)phenyl)-1H-pyrrole-2-carboxylate]: less than 10 µM.

The same experiment, now with this note: IC50, inhibition of pneumolysin-induced haemolysis of sheep erythrocytes; specific values.
For `CCOC(=O)c1c(O)c(O)c(-c2nn[nH]n2)n1-c1ccc(OC)cc1` [UL1-089, ethyl 3,4-dihydroxy-1-(4-methoxyphenyl)-5-(2H-tetrazol-5-yl)-1H-pyrrole-2-carboxylate], the 50% inhibitory concentration (IC50) stood at 0.4 µM.

The same experiment, now with this note: inhibition of pneumolysin-induced haemolysis of sheep erythrocytes; class symbols of Table 1; read-out: IC50.
Regarding `CCOC(=O)c1c(O)c(OP(=O)(OCC)OCC)c(C(=O)N(C)C)n1-c1ccc(OC)cc1` [UL1-097, ethyl 4-((diethoxyphosphoryl)oxy)-5-(dimethylcarbamoyl)-3-hydroxy-1-(4-methoxyphenyl)-1H-pyrrole-2-carboxylate], the IC50 is greater than 60 µM.

Broadly, the IC50 is the point on the concentration scale where inhibition reaches its midpoint.
